Data as given in patent publication US20240316022A1 (TYRA BIOSCIENCES, INC., priority 2021, published 2024).

Experiments:
Assay in all cases: Kinase binding assay (kinase-tagged T7 phage, qPCR), Kd
FGFR2 = target: T1, FGFR2 (Homo sapiens, UniProt P21802); settings: read-out: FGFR2 (Kd nM)
T1 construct: made in house; host or cells: E. coli derived from BL21, infected with T7 phage
Description: (§1) Kinase-tagged T7 phage strains were prepared in an E. coli host derived from the BL21 strain. E. coli were grown to log-phase and infected with T7 phage and incubated with shaking at 32° C. until lysis. The lysates were centrifuged and filtered to remove cell debris. […] The liganded beads were blocked with excess biotin and washed with blocking buffer SeaBlock (Pierce), 1% BSA, 0.05% Tween 20, 1 mM DTT to remove unbound ligand and to reduce non-specific binding.
(§2) Kds were determined using an 11-point 3-fold compound dilution series with three DMSO control points. […] The compounds were then diluted directly into the assays such that the final concentration of DMSO was 0.9%. All reactions performed in polypropylene 384-well plate. Each was a final volume of 0.02 ml. […] The kinase concentration in the eluates was measured by qPCR.
(§3) Binding constants were calculated with a standard dose-response curve using the Hill equation: […]
(§4) The Hill Slope was set to −1. Curves were fitted using a non-linear least square fit with the Levenberg-Marquardt algorithm.

FGFR1 = target: T2, FGFR1 (Homo sapiens, UniProt P11362); settings: read-out: FGFR1 (Kd nM)
T2 construct: made in house; host or cells: E. coli derived from BL21, infected with T7 phage
T2 sequence (P11362 22-822): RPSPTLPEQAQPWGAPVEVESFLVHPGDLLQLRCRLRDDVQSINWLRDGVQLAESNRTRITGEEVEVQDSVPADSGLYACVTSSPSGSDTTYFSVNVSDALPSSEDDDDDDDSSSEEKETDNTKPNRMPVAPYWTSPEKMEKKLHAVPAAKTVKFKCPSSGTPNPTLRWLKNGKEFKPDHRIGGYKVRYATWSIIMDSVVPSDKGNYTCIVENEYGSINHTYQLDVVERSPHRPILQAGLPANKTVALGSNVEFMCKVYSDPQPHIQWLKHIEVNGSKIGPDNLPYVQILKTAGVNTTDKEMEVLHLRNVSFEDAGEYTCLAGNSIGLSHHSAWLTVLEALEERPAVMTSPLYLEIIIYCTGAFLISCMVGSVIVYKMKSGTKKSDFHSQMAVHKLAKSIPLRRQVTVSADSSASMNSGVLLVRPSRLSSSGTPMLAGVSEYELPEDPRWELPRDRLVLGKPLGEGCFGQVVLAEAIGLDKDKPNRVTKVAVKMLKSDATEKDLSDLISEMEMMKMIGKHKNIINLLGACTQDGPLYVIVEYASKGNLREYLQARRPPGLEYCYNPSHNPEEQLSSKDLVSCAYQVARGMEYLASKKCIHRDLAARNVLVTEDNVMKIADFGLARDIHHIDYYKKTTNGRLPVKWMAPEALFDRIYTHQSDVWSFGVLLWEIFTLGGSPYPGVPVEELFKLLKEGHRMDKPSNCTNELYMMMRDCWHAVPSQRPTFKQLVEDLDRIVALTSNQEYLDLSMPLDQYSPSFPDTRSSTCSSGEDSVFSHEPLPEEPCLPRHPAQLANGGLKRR
Description: as §1, §2, §3, §4

FGFR4 = target: T3, FGFR4 (Homo sapiens, UniProt P22455); settings: read-out: FGFR4 (Kd nM)
T3 construct: made in house; host or cells: E. coli derived from BL21, infected with T7 phage
T3 sequence (P22455 22-802): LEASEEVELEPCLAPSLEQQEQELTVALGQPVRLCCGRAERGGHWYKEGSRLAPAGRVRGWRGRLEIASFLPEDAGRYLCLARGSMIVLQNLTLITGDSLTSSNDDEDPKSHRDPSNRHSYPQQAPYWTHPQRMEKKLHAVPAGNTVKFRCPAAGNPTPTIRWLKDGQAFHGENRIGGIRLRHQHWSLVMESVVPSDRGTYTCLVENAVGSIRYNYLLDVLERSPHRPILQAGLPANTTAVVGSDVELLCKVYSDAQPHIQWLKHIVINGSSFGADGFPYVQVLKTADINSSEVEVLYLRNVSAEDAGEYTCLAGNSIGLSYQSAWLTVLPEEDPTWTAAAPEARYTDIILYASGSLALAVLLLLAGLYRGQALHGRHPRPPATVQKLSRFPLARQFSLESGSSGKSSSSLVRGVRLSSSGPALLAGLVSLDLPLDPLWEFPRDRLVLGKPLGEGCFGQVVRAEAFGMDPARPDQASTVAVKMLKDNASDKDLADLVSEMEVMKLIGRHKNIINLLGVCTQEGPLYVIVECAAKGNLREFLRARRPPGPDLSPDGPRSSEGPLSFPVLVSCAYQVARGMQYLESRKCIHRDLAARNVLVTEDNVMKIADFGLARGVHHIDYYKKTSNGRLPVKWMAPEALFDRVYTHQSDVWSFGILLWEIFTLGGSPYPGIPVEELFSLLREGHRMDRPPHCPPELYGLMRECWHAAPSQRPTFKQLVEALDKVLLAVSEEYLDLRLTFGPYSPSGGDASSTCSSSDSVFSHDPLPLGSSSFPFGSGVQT
Description: (§5) Kinase-tagged T7 phage strains were prepared in an E. coli host derived from the BL21 strain. E. coli were grown to log-phase and infected with T7 phage and incubated with shaking at 32° C. until lysis. The lysates were centrifuged and filtered to remove cell debris. Streptavidin-coated magnetic beads were treated with biotinylated small molecule ligands for 30 minutes at room temperature to generate affinity resins for kinase assays. The liganded beads were blocked with excess biotin and washed with blocking buffer SeaBlock (Pierce), 1% BSA, 0.05% Tween 20, 1 mM DTT to remove unbound ligand and to reduce non-specific binding. Binding reactions were assembled by combining kinases, liganded affinity beads, and test compounds in 1× binding buffer (20% SeaBlock, 0.17×PBS, 0.05% Tween 20, 6 mM DTT).
(§6) Test compounds were prepared as 111X stocks in 100% DMSO. Kds were determined using an 11-point 3-fold compound dilution series with three DMSO control points. All compounds for Kd measurements are distributed by acoustic transfer (non-contact dispensing) in 100% DMSO. The compounds were then diluted directly into the assays such that the final concentration of DMSO was 0.9%. All reactions performed in polypropylene 384-well plate. Each was a final volume of 0.02 ml. The assay plates were incubated at room temperature with shaking for 1 hour and the affinity beads were washed with wash buffer (1×PBS, 0.05% Tween 20). The beads were then re-suspended in elution buffer (1×PBS, 0.05% Tween 20, 0.5 μM non-biotinylated affinity ligand) and incubated at room temperature with shaking for 30 minutes. The kinase concentration in the eluates was measured by qPCR.
as §3, §4

FGFR3 = target: T4, FGFR3 (Homo sapiens, UniProt P22607); settings: read-out: FGFR3 (Kd nM)
T4 construct: made in house; host or cells: E. coli derived from BL21, infected with T7 phage
T4 sequence (P22607 23-806): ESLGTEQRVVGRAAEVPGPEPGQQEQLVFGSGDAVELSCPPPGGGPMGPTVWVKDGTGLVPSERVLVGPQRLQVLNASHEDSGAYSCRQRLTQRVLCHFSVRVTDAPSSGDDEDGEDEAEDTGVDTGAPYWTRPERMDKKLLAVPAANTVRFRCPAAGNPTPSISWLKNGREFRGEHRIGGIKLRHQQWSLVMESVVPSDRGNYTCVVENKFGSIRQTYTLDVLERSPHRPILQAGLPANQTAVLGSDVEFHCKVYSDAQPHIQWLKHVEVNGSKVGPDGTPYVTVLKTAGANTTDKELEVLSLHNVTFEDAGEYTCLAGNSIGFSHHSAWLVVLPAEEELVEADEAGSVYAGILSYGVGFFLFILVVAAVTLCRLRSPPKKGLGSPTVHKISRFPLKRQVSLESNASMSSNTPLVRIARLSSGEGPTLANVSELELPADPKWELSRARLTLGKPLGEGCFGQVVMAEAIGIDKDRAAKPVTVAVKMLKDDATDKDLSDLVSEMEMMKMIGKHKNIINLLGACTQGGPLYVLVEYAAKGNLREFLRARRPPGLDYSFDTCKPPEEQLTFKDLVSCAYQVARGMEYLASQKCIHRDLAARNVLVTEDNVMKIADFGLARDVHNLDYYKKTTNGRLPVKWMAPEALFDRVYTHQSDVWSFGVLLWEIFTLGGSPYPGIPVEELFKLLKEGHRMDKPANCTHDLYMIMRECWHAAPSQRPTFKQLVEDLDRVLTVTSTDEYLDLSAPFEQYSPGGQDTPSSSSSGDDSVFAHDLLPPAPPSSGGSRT
Description: as §5, §6, §3, §4

T1 sequence (P21802 22-821): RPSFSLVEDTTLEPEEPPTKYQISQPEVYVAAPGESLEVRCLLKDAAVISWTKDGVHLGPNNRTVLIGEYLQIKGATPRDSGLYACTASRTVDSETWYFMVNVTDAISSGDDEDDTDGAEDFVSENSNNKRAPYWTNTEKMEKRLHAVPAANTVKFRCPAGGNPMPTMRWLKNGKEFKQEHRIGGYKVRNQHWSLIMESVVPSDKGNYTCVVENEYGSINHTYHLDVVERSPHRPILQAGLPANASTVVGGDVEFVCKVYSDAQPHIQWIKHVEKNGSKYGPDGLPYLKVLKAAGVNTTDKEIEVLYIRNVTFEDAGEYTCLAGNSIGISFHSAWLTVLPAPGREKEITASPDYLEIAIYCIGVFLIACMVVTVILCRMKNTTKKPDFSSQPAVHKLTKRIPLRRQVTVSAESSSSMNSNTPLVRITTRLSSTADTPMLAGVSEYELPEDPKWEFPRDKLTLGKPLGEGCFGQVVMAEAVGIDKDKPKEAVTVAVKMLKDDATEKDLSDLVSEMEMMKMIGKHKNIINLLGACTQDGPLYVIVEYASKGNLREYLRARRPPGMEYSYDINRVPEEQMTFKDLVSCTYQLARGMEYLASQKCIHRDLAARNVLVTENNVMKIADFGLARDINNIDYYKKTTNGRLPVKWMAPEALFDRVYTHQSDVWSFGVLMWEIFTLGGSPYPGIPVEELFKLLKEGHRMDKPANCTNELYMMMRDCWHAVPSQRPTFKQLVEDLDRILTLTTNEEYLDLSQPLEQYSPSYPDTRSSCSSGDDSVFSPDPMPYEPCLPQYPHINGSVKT

Row | Kd (FGFR2) [nM] | Kd (FGFR1) [nM] | Kd (FGFR4) [nM] | Kd (FGFR3) [nM] | Compound
1 | > 1000 | > 1000 | 0.1 to 100 | > 1000 | COc1cc(OCC2CC2)cc(-c2n[nH]c3ccc(O[C@H](C)c4c(C)cnnc4C)cc23)c1 [Example 68, 3-[3-(cyclopropyl-methoxy)-5-methoxy-phenyl]-5-[(1R)-1-(3,5-dimethylpyridazin-4-yl)ethoxy]-1H-indazole]
2 | > 1000 | > 1000 | 0.1 to 100 | 250 to 1000 | COc1cc(N)cc(-c2n[nH]c3ccc(O[C@H](C)c4c(Cl)cncc4Cl)cc23)c1 [Example 44, 3-[5-[(1R)-1-(3,5-dichloro-4-pyridyl)ethoxy]-1H-indazol-3-yl]-5-methoxy-aniline]
3 | 0.1 to 100 | 0.1 to 100 | 0.1 to 100 | 0.1 to 100 | C[C@@H](Oc1ccc2[nH]nc(-c3cnc(N[C@H]4CCOC4)c(C#N)c3)c2c1)c1c(Cl)cncc1Cl [Example 129, 5-(5-((R)-1-(3,5-dichloropyridin-4-yl)ethoxy)-1H-indazol-3-yl)-2-(((S)-tetrahydrofuran-3-yl)amino)nicotinonitrile]
4 | > 1000 | > 1000 | 250 to 1000 | > 1000 | Cc1cnnc(C)c1[C@@H](C)Oc1ccc2[nH]nc(-c3cc(C#N)cc(OC(F)(F)F)c3)c2c1 [Example 61, 3-[5-[(1R)-1-(3,5-dimethylpyridazin-4-yl)ethoxy]-1H-indazol-3-yl]-5-(trifluoromethoxy)-benzonitrile]
5 | > 1000 | > 1000 | 100 to 250 | 250 to 1000 | C[C@@H](Oc1ccc2[nH]nc(-c3cnc4c(c3)N(CCN(C)C)CCO4)c2c1)c1c(Cl)cncc1Cl [Example 51, 2-[7-[5-[(1R)-1-(3,5-dichloro-4-pyridyl)ethoxy]-1H-indazol-3-yl]-2,3-dihydro-pyrido[2,3-b][1,4]oxazin-1-yl]-N,N-dimethyl-ethanamine]
6 | 0.1 to 100 | 0.1 to 100 | 0.1 to 100 | 0.1 to 100 | COc1cc2[nH]nc(-c3cnc4c(c3)NCCO4)c2cc1O[C@H](C)c1c(Cl)cncc1Cl [Example 146]
7 | 0.1 to 100 | 0.1 to 100 | 0.1 to 100 | 0.1 to 100 | C[C@@H](Oc1ccc2[nH]nc(-c3ccc(OC4CC5(COC5)C4)nc3)c2c1)c1c(Cl)cncc1Cl [Example 161, (R)-3-(6-(2-oxaspiro[3.3]heptan-6-yloxy)pyridin-3-yl)-5-(1-(3,5-dichloropyridin-4-yl)ethoxy)-1H-indazole]
8 | 250 to 1000 | 250 to 1000 | 0.1 to 100 | 0.1 to 100 | Cc1cc(-c2n[nH]c3ccc(O[C@H](C)c4c(Cl)cnc(C)c4Cl)cc23)cnc1O[C@H]1CCOC1 [Example 154, 5-[(1R)-1-(3,5-dichloro-2-methyl-4-pyridyl)ethoxy]-3-[5-methyl-6-[(3S)-tetrahydrofuran-3-yl]oxy-3-pyridyl]-1H-indazole]
9 | > 1000 | 250 to 1000 | 0.1 to 100 | 250 to 1000 | Cc1cnnc(C)c1[C@@H](C)Oc1ccc2[nH]nc(-c3cc(C#N)cc(OC4CCOCC4)c3)c2c1 [Example 71, 3-[5-[(1R)-1-(3,5-dimethylpyridazin-4-yl)ethoxy]-1H-indazol-3-yl]-5-tetrahydropyran-4-yloxy-benzonitrile]
10 | > 1000 | > 1000 | 0.1 to 100 | 250 to 1000 | Cc1cc(C(=O)N2CCOc3ncc(-c4n[nH]c5ccc(O[C@H](C)c6c(Cl)cncc6Cl)cc45)cc32)ccn1 [Example 23, [7-[5-[(1R)-1-(3,5-dichloro-4-pyridyl)ethoxy]-1H-indazol-3-yl]-2,3-dihydro-pyrido[2,3-b][1,4]oxazin-1-yl]-(2-methyl-4-pyridyl)methanone]
11 | 0.1 to 100 | 0.1 to 100 | 0.1 to 100 | 0.1 to 100 | COCCNc1cc(-c2n[nH]c3ccc(O[C@H](C)c4c(Cl)cncc4Cl)cc23)ccn1 [Example 35, (R)-4-(5-(1-(3,5-Dichloropyridin-4-yl)ethoxy)-1H-indazol-3-yl)-N-(2-methoxyethyl)pyridin-2-amine]
12 | 0.1 to 100 | 0.1 to 100 | 0.1 to 100 | 0.1 to 100 | C[C@@H](Oc1ccc2[nH]nc(-c3ccc4c(c3)CCC3(CCNCC3)O4)c2c1)c1c(Cl)cncc1Cl [Example 104, 6-[5-[(1R)-1-(3,5-dichloro-4-pyridyl)ethoxy]-1H-indazol-3-yl]spiro[chromane-2,4′-piperidine]]
13 | 250 to 1000 | 250 to 1000 | 0.1 to 100 | 0.1 to 100 | COc1ncc(-c2n[nH]c3ccc(O[C@H](C)c4c(Cl)cncc4Cl)cc23)cc1C#N [Example 74, 5-[5-[(1R)-1-(3,5-dichloro-4-pyridyl)ethoxy]-1H-indazol-3-yl]-2-methoxy-pyridine-3-carbonitrile]
14 | 0.1 to 100 | 0.1 to 100 | 0.1 to 100 | 0.1 to 100 | C[C@@H](Oc1ccc2[nH]nc(-c3ccc(NC(=O)N4CCN(C)CC4)nc3)c2c1)c1c(Cl)cncc1Cl [Example 19, N-[5-[5-[(1R)-1-(3,5-dichloro-4-pyridyl)ethoxy]-1H-indazol-3-yl]-2-pyridyl]-4-methyl-piperazine-1-carboxamide]
15 | 0.1 to 100 | 0.1 to 100 | 0.1 to 100 | 0.1 to 100 | COc1cc2[nH]nc(-c3cnc(N(C)C)c(C#N)c3)c2cc1O[C@H](C)c1c(Cl)cncc1Cl [Example 131, 5-[5-[(1R)-1-(3,5-dichloro-4-pyridyl)ethoxy]-6-methoxy-1H-indazol-3-yl]-2-(dimethylamino)pyridine-3-carbonitrile]
16 | 100 to 250 | 100 to 250 | 0.1 to 100 | 0.1 to 100 | COCCOc1cc(C#N)cc(-c2n[nH]c3ccc(O[C@H](C)c4c(C)cnnc4C)cc23)c1 [Example 75, 3-[5-[(1R)-1-(3,5-dimethylpyridazin-4-yl)ethoxy]-1H-indazol-3-yl]-5-(2-methoxyethoxy)-benzonitrile]
17 | > 1000 | 250 to 1000 | 0.1 to 100 | 250 to 1000 | Cc1cnnc(C)c1[C@@H](C)Oc1ccc2[nH]nc(-c3cc(C#N)cc(OC(C)C)c3)c2c1 [Example 57, 3-[5-[(1R)-1-(3,5-dimethylpyridazin-4-yl)ethoxy]-1H-indazol-3-yl]-5-isopropoxy-benzonitrile]
18 | > 1000 | > 1000 | 250 to 1000 | 0.1 to 100 | C[C@@H](Oc1ccc2[nH]nc(-c3cnc4c(c3)N(Cc3ccccn3)CCO4)c2c1)c1c(Cl)cncc1Cl [Example 48, 7-[5-[(1R)-1-(3,5-dichloro-4-pyridyl)ethoxy]-1H-indazol-3-yl]-1-(2-pyridyl-methyl)-2,3-dihydro-pyrido[2,3-b][1,4]oxazine]
19 | 0.1 to 100 | 0.1 to 100 | 0.1 to 100 | 0.1 to 100 | C[C@@H](Oc1ccc2[nH]nc(-c3cnc4c(c3)OCC(=O)N4)c2c1)c1c(Cl)cncc1Cl [Example 38, 7-[5-[(1R)-1-(3,5-dichloro-4-pyridyl)ethoxy]-1H-indazol-3-yl]-4H-pyrido[3,2-b][1,4]oxazin-3-one]
20 | 250 to 1000 | 100 to 250 | 0.1 to 100 | 100 to 250 | Cc1cnnc(C)c1[C@@H](C)Oc1ccc2[nH]nc(-c3cc(C#N)cc(OC4CCOC4)c3)c2c1 (stereo partly drawn) [Example 67, 3-[5-[(1R)-1-(3,5-dimethylpyridazin-4-yl)ethoxy]-1H-indazol-3-yl]-5-tetrahydrofuran-3-yloxy-benzonitrile]
21 | 0.1 to 100 | 0.1 to 100 | 0.1 to 100 | 0.1 to 100 | C[C@@H](Oc1ccc2[nH]nc(-c3ccc(C(N)=O)nc3)c2c1)c1c(Cl)cncc1Cl [Example 12, 5-[5-[(1R)-1-(3,5-dichloro-4-pyridyl)ethoxy]-1H-indazol-3-yl]pyridine-2-carboxamide]
22 | 0.1 to 100 | 0.1 to 100 |  | 0.1 to 100 | COc1cc(C#N)cc(-c2n[nH]c3cc(OC)c(O[C@H](C)c4c(C)cnnc4C)cc23)c1 [Example 101, (R)-3-(5-(1-(3,5-dimethylpyridazin-4-yl)ethoxy)-6-methoxy-1H-indazol-3-yl)-5-methoxybenzonitrile]
